Experiment [1] has as its system ionomycin-induced calcium influx. The settings on record: presence of BAPTA-AM; cited from earlier work.
The target of experiment [2] is T1, rat VR1 capsaicin receptor (Rattus norvegicus, UniProt O35433).
T1 construct: expressed in transfected cells
Briefly: Fluo-3 fluorescence calcium response in VR1 cells (VIPR). The settings on record: 0.5 uM capsaicin. Format: cell-based. The protocol: Parental HEK293 cell lines expressing apoaequorin (293AEQ17 cells) were used to develop stable clonal cell lines expressing the rat VR1 capsaicin receptor (Caterina, M. J., Schumacher, M. A., Tominaga, M., Rosen, T. A., Levine, J. D., and Julius, D. (1997) The capsaicin receptor: a heat-activated ion channel in the pain pathway. Nature 389, 816-824). The VR1 293AEQ17 were maintained on growth media containing DMEM (GIBCOBRL, high glucose, with L-glutamine, with 110 mg/L sodium pyruvate, with pyridoxine HCl), 25 mM HEPES (GIBCOBRL, 1M stock), 0.5 mg/mL geneticin (GIBCOBRL, 50 mg/mL stock), 1 μg/mL puromycin (CLONTECH), and 10% fetal bovine serum (GEMINI BIO-PRODUCTS, heat inactivated) at 37° C., 10% CO^2.
Cells were grown to 80-95% confluence in tissue culture flasks (T-225, CORNING) and harvested by trypsinization (Trypsin/EDTA, GIBCOBRL). Cells were dispensed (about 1×10^5 cells/0.2 ml/well) into 96-well black clear-bottom BIOCOAT poly-D-lysine plates (BECTON DICKENSON, Bedford, Mass.) in growth media and incubated overnight at 37° C. in a humidified incubator at 10% CO^2. Cells were washed once with 200 μls of enriched PBS (Dulbecco's PBS (GIBCOBRL #14040-117), 10 mM HEPES, 2 g/L glucose; pH 7.2) and then incubated with 100 μl of 5 μM fluo-3-AM (MOLECULAR PROBES #F1241) with or without of 1,2-bis(o-aminophenoxy)ethane-N,N,N′,N′-tetraacetic acid tetra(acetoxymethyl) ester (BAPTA-AM, MOLECULAR PROBES #B 1205) in enriched PBS containing 0.02% pluronic F-127 (MOLECULAR PROBES #P-3000) for 30-70 minutes. Wells were washed two times with 100 μl of enriched-PBS, and then 100 μl enriched-PBS with or without antagonist was added for 15-30 minutes prior to assay on the AURORA fluorescence plate reader VIPR (ex. 480 nm, em. 535 nm). […] The calcium response was initiated by addition of 100 μl of the indicated concentration of capsaicin (SIGMA #M2028). The VIPR instrument was used to add agonist (in 100 μl enriched-PBS) after recording a 10 sec. baseline and the fluorescence was measured for up to 300 sec.
Changes in intracellular calcium were measured using the fluo-3 dye and detecting the kinetics of the response after addition of the VR1 agonist, capsaicin (0.5 uM) to cells expressing VR1 using a VIPR fluorescence plate reader (FIGS. 5 & 6A).

This is an account of results in patent publication US6514709B1, “High throughput screening by measurement of intracellular calcium levels” (Merck & Co., Inc., priority 2000, dated 2003).

T1 sequence (O35433 whole entry): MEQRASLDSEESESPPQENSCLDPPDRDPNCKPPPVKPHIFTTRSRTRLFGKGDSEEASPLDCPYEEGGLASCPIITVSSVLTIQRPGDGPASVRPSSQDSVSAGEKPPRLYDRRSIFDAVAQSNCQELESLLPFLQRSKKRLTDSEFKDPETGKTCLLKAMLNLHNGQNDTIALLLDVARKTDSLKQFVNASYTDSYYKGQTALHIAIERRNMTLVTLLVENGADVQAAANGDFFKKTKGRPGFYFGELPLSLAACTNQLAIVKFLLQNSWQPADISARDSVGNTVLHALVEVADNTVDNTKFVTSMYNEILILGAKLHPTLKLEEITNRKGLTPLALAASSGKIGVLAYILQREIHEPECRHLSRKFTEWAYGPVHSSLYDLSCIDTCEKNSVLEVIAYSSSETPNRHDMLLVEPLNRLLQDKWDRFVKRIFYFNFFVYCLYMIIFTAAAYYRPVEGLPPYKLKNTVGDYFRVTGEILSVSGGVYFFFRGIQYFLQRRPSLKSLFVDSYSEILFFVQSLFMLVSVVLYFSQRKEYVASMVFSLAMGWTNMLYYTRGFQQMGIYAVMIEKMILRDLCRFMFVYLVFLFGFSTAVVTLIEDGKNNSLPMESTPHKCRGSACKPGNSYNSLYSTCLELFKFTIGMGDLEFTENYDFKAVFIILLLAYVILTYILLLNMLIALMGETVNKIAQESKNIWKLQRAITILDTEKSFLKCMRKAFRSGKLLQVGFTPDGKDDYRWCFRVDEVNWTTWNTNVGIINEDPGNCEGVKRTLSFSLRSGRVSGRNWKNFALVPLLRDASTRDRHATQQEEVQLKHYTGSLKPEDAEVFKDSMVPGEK

As for `CC(=O)OCOC(=O)CN(CC(=O)OCOC(C)=O)c1ccccc1OCCOc1ccccc1N(CC(=O)OCOC(C)=O)CC(=O)OCOC(C)=O` [BAPTA-AM, 1,2-bis(o-aminophenoxy)ethane-N,N,N′,N′-tetraacetic acid tetra(acetoxymethyl)ester], in experiment [1], the “slowing of calcium transients” value is “up to 8 fold”. Also, in experiment [2] (3 μM BAPTA-AM for 30 minutes), the “time to peak fluorescence signal” value is “about 40 sec”. Besides, the “fluo-3 signal decay time” value in experiment [2] (3 μM BAPTA-AM) is “about 150 s”. The peak response time result in experiment [2] (10 and 30 μM BAPTA-AM) is “up to 100 sec”.
